# Test results as given in EP0528699B1, “Saishin N derivatives, process for their preparation and anti-ulcer agents containing them” (TOKYO TANABE COMPANY LIMITED, priority 1991, dated 1993).
# System: Hydrochloric acid-Ethanol-Induced Ulcers
# Assay: Hydrochloric acid-Ethanol-Induced Ulcers
# Format: in vivo, male Wister rats
# Details: Rattus norvegicus, intraduodenal, 1 h, Table 2; dose 5 mg/kg intraduodenally one hour before hydrochloric acid - 60% ethanol; read-out: Inhibition ratio(%)
# Method: Experiments on Hydrochloric acid-Ethanol-Induced Ulcers, Aspirin-Induced Ulcers, Water-Immersion stress-Induced Ulcers, Shay's Ulcers and Serotonin-Induced Ulcers were carried out using male Wister rats weighing about 200g in groups of six. Experiments on Ischemia-Reperfusion -Induced Gastric Lesions were carried out using male SD rats weighing about 250g in groups of six. Other than for the tests on Ischemia-Reperfusion-Induced Gastric Lesions Models, the test compounds were prepared by mixing thoroughly with polyethyleneglycol and 0.5% sodium carboxymethyl cellulose solution and emulsifying vigorously. Activities against respective ulcer models were evaluated by an inhibiting ratio obtained by dividing the difference between the ulceration indexes of the non-administered group and the test compound group by the non-administered group.
# To each rat which had been fasted for 24 hours was orally administered 0.5ml of a mixed solution of 150 mM hydrochloric acid - 60% ethanol per 100g of weight. Each rat was slaughtered after one hour, a length of ulcer formed at the fundus gland area of stomach was measured and ulceration index was calculated based on the length. The test compound was administered intraduodenally one hour or three hours before the administration of mixed solution of hydrochloric acid - 60% ethanol.
row,Compound,inhibition in vivo at 5 mg/kg [%]
1,"COC1C=C(C)C2(OC)CC(C)(C)C1O2 (centres unmarked) [AU155, 1,4-dimethoxy-2,6,6-trimethyl-8-oxabicyclo [3. 2. 1] oct-2-ene]",93

# Same assay, conditions: Rattus norvegicus, intraduodenal, 1 h, Table 2; dose 10 mg/kg intraduodenally one hour before hydrochloric acid - 60% ethanol; read-out: Inhibition ratio(%)
row,Compound,inhibition in vivo at 10 mg/kg [%]
1,"COC1C=C(C)C2(OC)CC(C)(C)C1O2 (centres unmarked) [AU155, 1,4-dimethoxy-2,6,6-trimethyl-8-oxabicyclo [3. 2. 1] oct-2-ene]",96
2,"COC12CC(C)(C)C(O)C(C=C1C)O2 (centres unmarked) [AU153, 1-methoxy-3,3,7-trimethyl-8-oxabicyclo [3.2.1] oct-6-en-4-ol]",55

# Same assay, conditions: Rattus norvegicus, intraduodenal, 3 h, Table 1; dose 20 mg/kg intraduodenally three hours before hydrochloric acid - 60% ethanol; read-out: Inhibition ratio(%)
row,Compound,inhibition in vivo at 20 mg/kg [%]
1,"COc1cc(C=CC(=O)OC2C=C(C)C3(OC)CC(C)(C)C2O3)ccc1O (centres unmarked) [AU417, 4-(4-hydroxy-3-methoxycinnamoyloxy)-1-methoxy-2,6,6-trimethyl-8-oxabicyclo [3.2.1] oct-2-ene]",69
2,"CC(=O)OC1C(OC(=O)c2ccccc2)C=C(C)C(=O)CC1(C)C (centres unmarked) [AU193, 5-acetoxy-4-benzoyloxy-2,6,6-trimethyl-2-cyclohepten-1-one]",60
3,"COC1C=C(C)C(=O)CC(C)(C)C1OC(=O)c1ccccc1C(=O)O (centres unmarked) [AU218, 5-(2-carboxybenzoyloxy)-4-methoxy-2,6,6-trimethyl-2-cyclohepten-1-one]",34
4,"COC1C=C(C)C(=O)CC(C)(C)C1OC(=O)c1ccc(N)c(N)c1 (centres unmarked) [AU410, 5-(3,4-diaminobenzoyloxy)-4-methoxy-2,6,6-trimethyl-2-cyclohepten-1-one]",75
5,"CC1=CC(O)C(OC(=O)c2ccc(N)cc2)C(C)(C)CC1=O (centres unmarked) [AU216, 5-(4-aminobenzoyloxy)-4-hydroxy-2,6,6-trimethyl-2-cyclohepten-1-one]",23
6,"COC1CC(C)(C)C(OC)C(OC)C=C1C (centres unmarked) [AU113, 1,4,5-trimethoxy-2,6,6-trimethyl-2-cycloheptene]",39
7,"COC1C=C(C)C(=O)CC(C)(C)C1OC(=O)c1ccc2nc[nH]c2c1 (centres unmarked) [AU507, 5-(5-benzimidazolylcarbonyloxy)-4-methoxy-2,6,6-trimethyl-2-cyclohepten-1-one]",63
8,"COC1C(O)C=C(C)C(OC(=O)c2ccccc2)CC1(C)C (centres unmarked) [AU227, 1-benzoyloxy-5-methoxy-2,6,6-trimethyl-2-cyclohepten-4-ol]",47
9,"CC1=CC(O)C(OC(=O)c2ccc(Cl)cc2)C(C)(C)CC1=O (centres unmarked) [AU128, 5-(4-chlorobenzoyloxy)-4-hydroxy-2,6,6-trimethyl-2-cyclohepten-1-one]",53
10,"COc1ccc(C(=O)OC2C=C(C)C(=O)CC(C)(C)C2O)cc1OC (centres unmarked) [AU133, 4-(3,4-dimethoxybenzoyloxy)-5-hydroxy-2,6,6-trimethyl-2-cyclohepten-1-one]",38
11,"CC1CC(O)C(OC(=O)c2ccccc2)C(C)(C)CC1=O (stereo not drawn) [AU191, 2,4-cis-5-benzoyloxy-4-hydroxy-2,6,6-trimethyl cycloheptan-1-one]",53
12,"COC1CC(C)(C)C(OC(C)=O)C(OC(C)=O)C=C1C (centres unmarked) [AU112, 4,5-diacetoxy-1-methoxy-2,6,6-trimethyl-2-cycloheptene]",45
13,"CC1CC(O)C2OC1(OC(=O)c1ccccc1)CC2(C)C (stereo not drawn) [AU252, 2,4-cis-1-benzoyloxy-2,6,6-trimethyl-8-oxabicyclo [3.2.1] octan-4-ol]",31
14,"CC1=CC(OC(=O)c2ccc(N)cc2N)C(O)C(C)(C)CC1=O (centres unmarked) [AU242, 4-(2,4-diaminobenzoyloxy)-5-hydroxy-2,6,6-trimethyl-2-cyclohepten-1-one]",60
15,"COc1ccc(COC2CC(C)C(=O)CC(C)(C)C2OC(=O)c2ccccc2)cc1 (stereo not drawn) [AU187, 2,4-cis-5-benzoyloxy-4-(4-methoxybenzyloxy)-2,6,6-trimethylcycloheptan-1-one]",35
16,"COC1C(OC(=O)c2ccc([N+](=O)[O-])cc2)C=C(C)C(=O)CC1(C)C (centres unmarked) [AU238, 5-methoxy-4-(4-nitrobenzoyloxy)-2,6,6-trimethyl-2-cyclohepten-1-one]",40
17,"COc1ccc(COC2C=C(C)C(=O)CC(C)(C)C2O)cc1 (centres unmarked) [AUM09, 5-hydroxy-4-(4-methoxybenzyloxy)-2,6,6-trimethyl-2-cyclohepten-1-one]",17
